In ChEMBL document CHEMBL1201862, “PubChem BioAssay data set” (2004):
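Results reflect a 48-hour exposure of cells in 96-well plates to compound at five concentrations. GI50 is the concentration that inhibits growth by half.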 Calls of active or inactive are those of the source. Rule as the data show it: active = GI50 up to about 1.1 µM and inactive = higher.

Experiments:
Assay in all cases: NCI tumour cell line growth inhibition, 48 h
COLO 205 = system: COLO 205
IGROV-1 = system: IGROV-1
SN12C = system: SN12C
HOP-92 = system: HOP-92
RXF 393 = system: RXF 393
UO-31 = system: UO-31
SK-MEL-2 = system: SK-MEL-2
UACC-257 = system: UACC-257
K562 = system: K562
SNB-19 = system: SNB-19
OVCAR-3 = system: OVCAR-3
A549 = system: A549
CCRF-CEM = system: CCRF-CEM
OVCAR-5 = system: OVCAR-5
RPMI-8226 = system: RPMI-8226
HT-29 = system: HT-29
SK-MEL-5 = system: SK-MEL-5
SNB-75 = system: SNB-75
SF-268 = system: SF-268
NCI-H226 = system: NCI-H226

SMILES	GI50 (COLO 205)	GI50 (IGROV-1)	GI50 (SN12C)	GI50 (HOP-92)	GI50 (RXF 393)	GI50 (UO-31)	GI50 (SK-MEL-2)	GI50 (UACC-257)	GI50 (K562)	GI50 (SNB-19)	GI50 (OVCAR-3)	GI50 (A549)	GI50 (CCRF-CEM)	GI50 (OVCAR-5)	GI50 (RPMI-8226)	GI50 (HT-29)	GI50 (SK-MEL-5)	GI50 (SNB-75)	GI50 (SF-268)	GI50 (NCI-H226)
CCCNC(/C=C/[Si](C)(C)C)CO.CCCNCC(O)/C=C/[Si](C)(C)C (configuration not stated)	98.2 µM (inactive)	> 100 µM (inactive)	> 100 µM (inactive)	36.9 µM (inactive)	95.7 µM (inactive)	> 100 µM (inactive)	> 100 µM (inactive)	> 100 µM (inactive)	> 100 µM (inactive)	> 100 µM (inactive)	> 100 µM (inactive)	> 100 µM (inactive)	> 100 µM (inactive)	> 100 µM (inactive)	90.8 µM (inactive)	> 100 µM (inactive)	> 100 µM (inactive)	40.6 µM (inactive)	–	–
O=C(O)CSCc1cc2c(O)c(c1)Cc1cc(CSCC(=O)O)cc(c1O)Cc1cc(CSCC(=O)O)cc(c1O)Cc1cc(CSCC(=O)O)cc(c1O)C2	> 100 µM (inactive)	> 100 µM (inactive)	> 100 µM (inactive)	> 100 µM (inactive)	> 100 µM (inactive)	> 100 µM (inactive)	> 100 µM (inactive)	> 100 µM (inactive)	> 100 µM (inactive)	> 100 µM (inactive)	> 100 µM (inactive)	> 100 µM (inactive)	> 100 µM (inactive)	> 100 µM (inactive)	> 100 µM (inactive)	> 100 µM (inactive)	–	–	> 100 µM (inactive)	89.5 µM (inactive)
O=P1(N2CCOCC2)OCCO1	> 100 µM (inactive)	> 100 µM (inactive)	> 100 µM (inactive)	> 100 µM (inactive)	> 100 µM (inactive)	> 100 µM (inactive)	–	> 100 µM (inactive)	> 100 µM (inactive)	> 100 µM (inactive)	–	> 100 µM (inactive)	> 100 µM (inactive)	> 100 µM (inactive)	> 100 µM (inactive)	> 100 µM (inactive)	> 100 µM (inactive)	–	> 100 µM (inactive)	–
COC1C=CC(O)C(CO)O1 (configuration not stated)	–	> 100 µM (inactive)	> 100 µM (inactive)	> 100 µM (inactive)	> 100 µM (inactive)	> 100 µM (inactive)	> 100 µM (inactive)	> 100 µM (inactive)	> 100 µM (inactive)	–	> 100 µM (inactive)	> 100 µM (inactive)	> 100 µM (inactive)	> 100 µM (inactive)	–	> 100 µM (inactive)	> 100 µM (inactive)	> 100 µM (inactive)	–	–
CN(CCCCCl)P(=O)(OCC1=CC(=O)c2ccccc2C1=O)OC[C@H]1O[C@@H](n2cc(F)c(=O)[nH]c2=O)C[C@@H]1O (some centres not stated)	–	0.124 µM (active)	< 0.0323 µM (active)	< 0.0285 µM (active)	0.0625 µM (active)	< 0.01 µM (active)	8.09 µM (inactive)	6.17 µM (inactive)	1.5 µM (inactive)	–	0.109 µM (active)	< 0.01 µM (active)	< 0.01 µM (active)	4.38 µM (inactive)	–	–	0.0334 µM (active)	< 0.0176 µM (active)	< 0.01 µM (active)	0.521 µM (active)
CCCCCc1cccc(=O)o1	> 100 µM (inactive)	> 100 µM (inactive)	> 100 µM (inactive)	44.2 µM (inactive)	> 100 µM (inactive)	> 100 µM (inactive)	> 100 µM (inactive)	> 100 µM (inactive)	> 100 µM (inactive)	> 100 µM (inactive)	> 100 µM (inactive)	> 100 µM (inactive)	> 100 µM (inactive)	> 100 µM (inactive)	> 100 µM (inactive)	> 100 µM (inactive)	> 100 µM (inactive)	–	> 100 µM (inactive)	> 100 µM (inactive)
